From ChEMBL document CHEMBL4402585 (J Med Chem, 2020)
The source made the active and inactive calls. The calls are words filed in the database; no cut-off is given here.

Tests used:
[1] = target: Histone acetyltransferase p300 (Homo sapiens, UniProt Q09472); experiment: Inhibition of MSGRGK(Ac)-GGK(Ac)GLGK(Ac)GGAKRHR-biotin binding to EP300 (1040 to 1160 residues) (unknown origin) expressed in Escherichia coli BL21 (DE3) by Alphascreen assay
[2] = Clearance in human liver microsomes at 0.1 uM preincubated for 10 mins followed by NADPH addition and measured up to 60 mins by LC-MS/MS analysis; assay type: ADME, Microsome; details: 1 h
[3] = Clearance in rat liver microsomes at 0.1 uM preincubated for 10 mins followed by NADPH addition and measured up to 60 mins by LC-MS/MS analysis; assay type: ADME, Microsome; details: 1 h
[4] = Clearance in mouse liver microsomes at 0.1 uM preincubated for 10 mins followed by NADPH addition and measured up to 60 mins by LC-MS/MS analysis; assay type: ADME, Microsome; details: 1 h
[5] = Half life in mouse liver microsomes at 0.1 uM preincubated for 10 mins followed by NADPH addition and measured up to 60 mins by LC-MS/MS analysis; assay type: ADME, Microsome
[6] = Half life in Sprague-Dawley rat at 3 mg/kg, po by LC-MS/MS analysis; assay type: ADME, organism-based; details: in vivo
[7] = AUC (0 to t) in Sprague-Dawley rat at 3 mg/kg, po by LC-MS/MS analysis; assay type: ADME, organism-based; details: in vivo
[8] = AUC (0 to t) in Sprague-Dawley rat at 1 mg/kg, iv by LC-MS/MS analysis; assay type: ADME, organism-based; details: in vivo
[9] = Clearance in Sprague-Dawley rat at 1 mg/kg, iv by LC-MS/MS analysis; assay type: ADME, organism-based; details: in vivo
[10] = Cmax in mouse at 3 mg/kg, po by LC-MS/MS analysis; assay type: ADME, organism-based; design: dose 3 mg/kg, route oral; details: in vivo
[11] = AUC (0 to t) in mouse at 3 mg/kg, po by LC-MS/MS analysis; assay type: ADME, organism-based; details: in vivo
[12] = Oral bioavailability in mouse at 3 mg/kg by LC-MS/MS analysis; assay type: ADME, organism-based; details: in vivo
[13] = AUC (0 to t) in mouse at 3 mg/kg, iv by LC-MS/MS analysis; assay type: ADME, organism-based; details: in vivo
[14] = Clearance in mouse at 3 mg/kg, iv by LC-MS/MS analysis; assay type: ADME, organism-based; details: in vivo
[15] = target: Bromodomain-containing protein 2 (Homo sapiens, UniProt P25440); experiment: Binding affinity to human partial length BRD2 BD2 isoform 1 (E348 to D455 residues) expressed in bacterial expression system by bromoscan assay
Bromodomain-containing protein 2, sequence (P25440 whole entry, the tested form may be a part, canonical isoform): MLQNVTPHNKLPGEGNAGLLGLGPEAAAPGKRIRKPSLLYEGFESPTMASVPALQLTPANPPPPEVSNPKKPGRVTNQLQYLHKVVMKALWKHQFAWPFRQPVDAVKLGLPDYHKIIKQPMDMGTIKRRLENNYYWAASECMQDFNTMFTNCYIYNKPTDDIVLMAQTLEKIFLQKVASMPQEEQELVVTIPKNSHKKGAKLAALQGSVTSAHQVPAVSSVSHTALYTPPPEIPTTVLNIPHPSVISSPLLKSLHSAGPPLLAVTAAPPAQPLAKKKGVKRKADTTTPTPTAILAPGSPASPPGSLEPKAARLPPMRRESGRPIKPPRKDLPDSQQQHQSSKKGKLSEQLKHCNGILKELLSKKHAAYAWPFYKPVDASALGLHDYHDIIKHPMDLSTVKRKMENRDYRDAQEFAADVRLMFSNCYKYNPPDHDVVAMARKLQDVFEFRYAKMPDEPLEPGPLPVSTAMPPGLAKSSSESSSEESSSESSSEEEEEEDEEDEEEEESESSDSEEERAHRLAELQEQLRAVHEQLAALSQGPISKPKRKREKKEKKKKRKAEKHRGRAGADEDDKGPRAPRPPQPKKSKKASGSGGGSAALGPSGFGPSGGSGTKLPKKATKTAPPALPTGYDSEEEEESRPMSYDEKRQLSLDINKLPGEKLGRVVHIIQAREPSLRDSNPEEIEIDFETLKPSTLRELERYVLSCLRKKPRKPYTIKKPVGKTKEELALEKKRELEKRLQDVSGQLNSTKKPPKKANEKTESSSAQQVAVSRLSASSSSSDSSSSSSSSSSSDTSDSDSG

[16] = target: Bromodomain-containing protein 3 (Homo sapiens, UniProt Q15059); experiment: Binding affinity to human partial length BRD3 BD2 (G306 to P416 residues) expressed in bacterial expression system by bromoscan assay
Bromodomain-containing protein 3, sequence (Q15059 whole entry, the tested form may be a part, canonical isoform): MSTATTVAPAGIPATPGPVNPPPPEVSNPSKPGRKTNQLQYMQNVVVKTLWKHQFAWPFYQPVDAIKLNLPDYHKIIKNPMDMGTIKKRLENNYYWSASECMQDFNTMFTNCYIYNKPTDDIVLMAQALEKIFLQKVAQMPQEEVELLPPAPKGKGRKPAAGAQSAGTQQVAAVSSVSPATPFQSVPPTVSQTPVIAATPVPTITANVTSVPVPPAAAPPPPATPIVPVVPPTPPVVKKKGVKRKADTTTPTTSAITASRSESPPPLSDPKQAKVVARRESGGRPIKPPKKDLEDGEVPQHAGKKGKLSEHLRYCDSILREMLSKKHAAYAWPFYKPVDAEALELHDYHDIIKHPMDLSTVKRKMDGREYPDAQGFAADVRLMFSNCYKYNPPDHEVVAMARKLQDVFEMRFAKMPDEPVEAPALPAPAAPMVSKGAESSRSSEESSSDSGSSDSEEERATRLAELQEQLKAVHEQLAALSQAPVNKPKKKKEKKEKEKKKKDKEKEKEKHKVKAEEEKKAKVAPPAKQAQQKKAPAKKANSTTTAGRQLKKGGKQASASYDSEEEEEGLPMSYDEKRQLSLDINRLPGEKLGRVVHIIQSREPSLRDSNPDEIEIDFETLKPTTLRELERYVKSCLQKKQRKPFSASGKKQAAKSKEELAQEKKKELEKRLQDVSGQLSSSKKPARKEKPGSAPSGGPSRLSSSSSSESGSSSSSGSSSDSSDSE

[17] = target: Bromodomain testis-specific protein (Homo sapiens, UniProt Q58F21); experiment: Binding affinity to human partial length BRDT bromodomain 2 isoform b (K250 to E382 residues) expressed in bacterial expression system by bromoscan assay
Kasumi 1 = experiment: Antiproliferative activity against human Kasumi-1 cells assessed as reduction in cell viability measured after 72 hrs by Celltitre-glo luminescence assay; assay type: functional, cell-based; details: Kasumi 1, 72 h
RS4-11 = experiment: Antiproliferative activity against human RS4:11 cells assessed as reduction in cell viability measured after 72 hrs by Celltitre-glo luminescence assay; assay type: functional, cell-based; details: RS4-11, 72 h
MM1.S = experiment: Antiproliferative activity against human MM1S cells assessed as reduction in cell viability measured after 72 hrs by Celltitre-glo luminescence assay; assay type: functional, cell-based
[18] = target: T1, Bromodomain-containing protein 4 (Homo sapiens, UniProt O60885); experiment: Inhibition of BRD4 in human MV4-11 cells assessed as reduction in c-Myc expression measured after 6 to 24 hrs by Western blot analysis; assay type: cell-based
[19] = target: T1, Bromodomain-containing protein 4; experiment: Inhibition of BRD4 in human MV4-11 cells assessed as up regulation of p21 expression measured after 6 to 24 hrs by Western blot analysis; assay type: cell-based
MV4-11 [20] = experiment: Cell cycle arrest in human MV4-11 cells assessed as increase in accumulation at G1-phase at 31.25 nM measured after 24 hrs by propidium iodide staining based flow cytometry; assay type: functional
[21] = Half life in dog liver microsomes at 0.1 uM preincubated for 10 mins followed by NADPH addition and measured up to 60 mins by LC-MS/MS analysis; assay type: ADME, Canis lupus familiaris, Microsome
[22] = Half life in monkey liver microsomes at 0.1 uM preincubated for 10 mins followed by NADPH addition and measured up to 60 mins by LC-MS/MS analysis; assay type: ADME, Macaca mulatta, Microsome; details: rhesus monkey
[23] = Clearance in dog liver microsomes at 0.1 uM preincubated for 10 mins followed by NADPH addition and measured up to 60 mins by LC-MS/MS analysis; assay type: ADME, Canis lupus familiaris, Microsome; details: 1 h
Cytochrome P450 1A2 = target: T2, Cytochrome P450 1A2 (Homo sapiens, UniProt P05177); experiment: Inhibition of CYP1A2 in human liver microsomes using phenacetin as substrate preincubated for 10 mins followed by NADPH addition and measured after 15 mins by LC-MS/MS analysis; assay type: ADME
T2 sequence (P05177 whole entry): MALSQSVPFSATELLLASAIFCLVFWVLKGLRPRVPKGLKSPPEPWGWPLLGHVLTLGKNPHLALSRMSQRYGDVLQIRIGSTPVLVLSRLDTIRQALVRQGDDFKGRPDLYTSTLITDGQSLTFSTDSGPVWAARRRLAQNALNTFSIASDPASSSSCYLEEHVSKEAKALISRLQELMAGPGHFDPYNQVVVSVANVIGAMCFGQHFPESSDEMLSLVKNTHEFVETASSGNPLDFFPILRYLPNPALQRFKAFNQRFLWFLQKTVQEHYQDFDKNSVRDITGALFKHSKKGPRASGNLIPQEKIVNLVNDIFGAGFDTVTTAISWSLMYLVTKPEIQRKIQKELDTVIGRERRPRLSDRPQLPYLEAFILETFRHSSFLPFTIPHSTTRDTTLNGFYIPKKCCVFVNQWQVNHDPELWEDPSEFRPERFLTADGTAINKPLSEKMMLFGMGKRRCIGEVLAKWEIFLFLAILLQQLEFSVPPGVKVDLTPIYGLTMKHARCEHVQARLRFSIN

Cytochrome P450 3A4 [24] = target: T3, Cytochrome P450 3A4 (Homo sapiens, UniProt P08684); experiment: Inhibition of CYP3A4 in human liver microsomes using testosterone as substrate preincubated for 10 mins followed by NADPH addition and measured after 15 mins by LC-MS/MS analysis; assay type: ADME
T3 sequence (P08684 whole entry): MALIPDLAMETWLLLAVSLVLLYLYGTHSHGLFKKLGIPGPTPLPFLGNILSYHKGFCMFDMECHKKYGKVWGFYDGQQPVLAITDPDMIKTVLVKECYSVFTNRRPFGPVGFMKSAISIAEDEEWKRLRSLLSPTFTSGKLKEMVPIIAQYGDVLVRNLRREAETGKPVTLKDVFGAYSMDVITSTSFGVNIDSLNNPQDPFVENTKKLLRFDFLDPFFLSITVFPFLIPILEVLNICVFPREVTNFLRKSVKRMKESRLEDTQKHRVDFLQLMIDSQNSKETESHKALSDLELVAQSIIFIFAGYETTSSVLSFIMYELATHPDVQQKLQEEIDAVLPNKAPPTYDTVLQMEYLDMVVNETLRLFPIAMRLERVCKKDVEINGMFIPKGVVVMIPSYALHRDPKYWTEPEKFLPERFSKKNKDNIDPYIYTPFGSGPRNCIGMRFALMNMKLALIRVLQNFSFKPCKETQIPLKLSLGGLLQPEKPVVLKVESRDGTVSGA

Cytochrome P450 3A4 [25] = target: T3, Cytochrome P450 3A4; experiment: Inhibition of CYP3A4 in human liver microsomes using midazolam as substrate preincubated for 10 mins followed by NADPH addition and measured after 15 mins by LC-MS/MS analysis; assay type: ADME
MV4-11 [26] = experiment: Antitumor activity against human MV4-11 cells xenografted in mouse assessed as tumor growth inhibition at 12.5 mg/kg, po administered for 28 days and measured every 2 to 3 days during compound dosing relative to control; assay type: functional; details: MV4-11, po, read-out: TGI
[27] = Toxicity in human MV4-11 cells xenografted mouse assessed as change in body weight at 6.25 to 12.5 mg/kg, po administered for 28 days and measured every 2 to 3 days during compound dosing; assay type: organism-based; details: in vivo
[28] = target: T1, Bromodomain-containing protein 4
Description: Binding affinity to N-terminal His6-tagged BRD4 bromodomain 1 (49 to 170 residues) (unknown origin) expressed in Escherichia coli BL21 (DE3) assessed as change in melting temperature at 1:100 molar ratio by SYPRO orange dye based fluorescence thermal shift assay

Histone acetyltransferase p300, sequence (Q09472 whole entry, the tested form may be a part): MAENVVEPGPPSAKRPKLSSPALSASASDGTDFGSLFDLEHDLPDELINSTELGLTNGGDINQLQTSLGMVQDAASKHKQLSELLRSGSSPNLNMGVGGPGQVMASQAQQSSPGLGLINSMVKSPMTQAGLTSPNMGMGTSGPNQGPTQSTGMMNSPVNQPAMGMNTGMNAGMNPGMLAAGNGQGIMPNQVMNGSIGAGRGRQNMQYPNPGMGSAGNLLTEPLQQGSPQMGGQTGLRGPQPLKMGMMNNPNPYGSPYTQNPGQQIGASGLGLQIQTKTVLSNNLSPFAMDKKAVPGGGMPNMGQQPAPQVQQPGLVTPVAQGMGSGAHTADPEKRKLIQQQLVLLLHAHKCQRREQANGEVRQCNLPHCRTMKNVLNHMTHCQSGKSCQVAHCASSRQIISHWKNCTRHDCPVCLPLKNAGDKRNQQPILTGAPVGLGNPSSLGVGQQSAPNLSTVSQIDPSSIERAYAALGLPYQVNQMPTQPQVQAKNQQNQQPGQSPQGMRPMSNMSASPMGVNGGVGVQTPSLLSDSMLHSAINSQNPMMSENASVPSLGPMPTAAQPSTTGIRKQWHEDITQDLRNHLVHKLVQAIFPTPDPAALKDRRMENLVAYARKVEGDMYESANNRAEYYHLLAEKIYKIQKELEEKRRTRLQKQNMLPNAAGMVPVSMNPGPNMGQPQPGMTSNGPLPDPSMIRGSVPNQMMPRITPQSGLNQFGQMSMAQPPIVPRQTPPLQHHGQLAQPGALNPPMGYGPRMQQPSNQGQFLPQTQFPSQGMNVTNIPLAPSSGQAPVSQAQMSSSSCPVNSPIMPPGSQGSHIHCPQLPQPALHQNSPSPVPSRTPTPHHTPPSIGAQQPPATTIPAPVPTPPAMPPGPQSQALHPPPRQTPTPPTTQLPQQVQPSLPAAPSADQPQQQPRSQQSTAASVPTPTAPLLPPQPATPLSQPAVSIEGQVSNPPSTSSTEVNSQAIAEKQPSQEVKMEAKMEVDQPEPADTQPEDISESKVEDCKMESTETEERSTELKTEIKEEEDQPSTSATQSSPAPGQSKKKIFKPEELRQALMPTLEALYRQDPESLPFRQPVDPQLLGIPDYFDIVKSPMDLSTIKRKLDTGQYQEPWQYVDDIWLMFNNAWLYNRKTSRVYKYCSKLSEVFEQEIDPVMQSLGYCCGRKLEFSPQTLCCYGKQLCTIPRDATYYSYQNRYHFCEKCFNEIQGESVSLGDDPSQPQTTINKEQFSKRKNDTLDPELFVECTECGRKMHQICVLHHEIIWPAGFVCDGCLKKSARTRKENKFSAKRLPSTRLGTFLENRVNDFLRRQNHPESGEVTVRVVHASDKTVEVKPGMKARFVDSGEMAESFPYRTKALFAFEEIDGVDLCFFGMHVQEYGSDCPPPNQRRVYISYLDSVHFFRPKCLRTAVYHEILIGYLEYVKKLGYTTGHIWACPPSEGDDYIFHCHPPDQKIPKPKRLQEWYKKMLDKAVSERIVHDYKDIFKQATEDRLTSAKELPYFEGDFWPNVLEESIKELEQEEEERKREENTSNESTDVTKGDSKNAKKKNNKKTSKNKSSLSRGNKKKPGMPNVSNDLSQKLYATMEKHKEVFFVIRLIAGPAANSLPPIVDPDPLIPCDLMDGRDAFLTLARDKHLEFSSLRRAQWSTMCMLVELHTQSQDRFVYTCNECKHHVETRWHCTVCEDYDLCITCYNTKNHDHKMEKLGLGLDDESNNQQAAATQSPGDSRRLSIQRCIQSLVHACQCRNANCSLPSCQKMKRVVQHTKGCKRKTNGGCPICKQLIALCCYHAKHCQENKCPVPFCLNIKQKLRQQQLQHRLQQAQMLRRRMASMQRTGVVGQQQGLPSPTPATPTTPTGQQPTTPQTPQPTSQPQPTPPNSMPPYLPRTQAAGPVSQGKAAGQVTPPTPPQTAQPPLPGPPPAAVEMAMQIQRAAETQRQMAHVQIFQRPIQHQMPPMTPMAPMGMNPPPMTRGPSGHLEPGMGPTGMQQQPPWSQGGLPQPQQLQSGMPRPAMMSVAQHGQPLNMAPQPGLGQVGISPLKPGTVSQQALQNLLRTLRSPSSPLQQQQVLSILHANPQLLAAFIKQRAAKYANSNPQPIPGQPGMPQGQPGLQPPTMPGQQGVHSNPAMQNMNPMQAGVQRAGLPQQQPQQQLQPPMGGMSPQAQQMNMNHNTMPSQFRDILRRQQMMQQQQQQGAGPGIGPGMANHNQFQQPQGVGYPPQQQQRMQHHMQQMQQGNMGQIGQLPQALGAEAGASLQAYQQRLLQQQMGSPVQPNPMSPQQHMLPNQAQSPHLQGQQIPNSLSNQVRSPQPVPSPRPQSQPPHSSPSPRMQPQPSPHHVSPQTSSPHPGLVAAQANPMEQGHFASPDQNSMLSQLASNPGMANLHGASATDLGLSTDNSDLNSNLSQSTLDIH

Molecule `CCS(=O)(=O)Cc1cnc(Oc2ccc(F)cc2F)c(-c2cc(C)c3c(=O)[nH]ccn23)c1` has an IC50 [1] of 3860 nM, a Microsomal intrinsic clearance [2] of 12.2 mL/min/g and an Intrinsic clearance [3] of 64.8 mL/min/g. The Microsomal intrinsic clearance [4] was 25.4 mL/min/g, the half-life at 0.1 µM [5] was 1.38 h and the half-life [6] was 3.6 h. It also gave an AUC(0-t) [7] of 884 ng·h/mL, an AUC(0-t) [8] of 848 ng·h/mL and a clearance [9] of 21.5 mL/min/kg. The Cmax [10] was 399 ng/mL, the AUC(0-t) [11] was 1710 ng·h/mL and the bioavailability [12] was 52.3%. The AUC(0-t) [13] was 3270 ng·h/mL, the clearance [14] was 15.3 mL/min/kg and the Kd [15] was 1.3 nM. It also gave a Kd [16] of 1 nM, a Kd [17] of 2.1 nM and an IC50 (Kasumi 1) of 7.4 nM. The IC50 (RS4-11) was 22.1 nM, the IC50 (MM1.S) was 15.9 nM and the inhibition [18] was “Dose-dependent effect”. The inhibition [19] was “Dose-dependent effect”, the Activity (MV4-11 [20]) was “Active” and the half-life at 0.1 µM [21] was 1.39 h. For the same molecule, the half-life at 0.1 µM [22] was 0.817 h, the CLH [23] was 25.2 mL/min/g and the IC50 (Cytochrome P450 1A2) was > 20000 nM. For the same molecule, the IC50 (Cytochrome P450 3A4 [24]) was > 20000 nM, the IC50 (Cytochrome P450 3A4 [25]) was > 20000 nM and the inhibition in vivo at 12.5 mg/kg (MV4-11 [26]) was 99.7%. For the same molecule, the Activity [27] was “Non-Toxic” and the ΔTm [28] was > 1 °C.
